Source: patent EP0167553B1, “NEW THERAPEUTICAL APPLICATION OF AN INDANE DIONE DERIVATIVE AND PHARMACEUTICAL COMPOSITIONS INTENDED TO SAID UTILIZATION” (priority 1983, dated 1985)
“And” between values parts separate entries of the source, which are not always exact repeats. Equal values may be shown once.

What was measured:
Assay type in all cases: in vivo, Rat Wistar
[1] = system: Rats: Wistar femelles; test: Atherogenic diet (modified Aubert technique): biochemical examinations and atherogenic risk; parameters: score général Biochimie / Risque athérogène Score Total: scale not given here; conditions: for Cholesterol LDL Cholesterol HDL Score / Cholesterol T/ Cholesterol HDL Score: atherogenic risk ratio; for score général Biochimie: sum of the individual biochemical scores
Text: (§1) La technique utilisée est celle, légèrement modifiée, de AUBERT D., FERAUD J.C., LACAZE B., PEPINO., PANAK E. et PODESTA M. "Athérogénèse expérimentale chez le Rat Wistar". ATHEROSCLEROSIS 2Q (1974) 263 - 280.
(§2) • - Rats: Wistar femelles, E.O.P.S. en provenance de l'élevage EVIC-CEBA. • - Poids corporel: 160 180 g au départ de l'étude • - Alimentation: UAR A03, enrichi en cholestérol (0,5 %) et en Acide chloique (0,5 %). • - Eau de boisson: eau de ville. • - 15 animaux par lot et par cage MAKROLON SAFI® de 59 x 38,5 cm sur litière de copeaux de bois blanc dépoussiérés. • - Cages placées dans un module animalerie climatisé (20°C * 1°C), à l'humidité constante (50 % ± 10 %). Durée d'éclairement: 12 heures par jour (7 h à 19 h). • - Administration des produits: Après 15 jours de régime athéromateux, on leur administre par voie orale pendant 4 jours 250 000 Ul/kg de vitamine D2 (Stérogyl 15 H) en solution dans l'huile d'olive. On administre ensuite les produits à étudier pendant 4 semaines dès la fin de l'administration de l'agent lésionnel.
L'étude porte sur 5 Lots de 15 rats (tableau N° IV)
En fin d'étude, on pratique sur tous les animaux survivants les examens suivants: • - Cholestérol total, • - Cholestérol estérifié, • - Cholestérol HDL • - Cholestérol LDL (évaluation), • - Lipides totaux, • - Triglycérides.

[2] = system: Rats: Wistar femelles; test: Atherogenic diet (modified Aubert technique): histopathological examination; conditions: 100 mg/kg; three parameters scored relative to Clofibrate
Text: as §1, §2
Les aortes, les foies et les coeurs sont fixés au Bouitaqueux et inclus à la paraffine après passage par les alcools à concentration croissante et par le toluène.
Les foies sont colorés par la technique à l'hématéine-éosine. Les aortes sont colorées par: • - la technique à l'orcéine - vert lumière afin de mettre en évidence les altérations structurales des lames élastiques. • - la technique à l'acide périodique plus réactif de Schiff pour déceler les dépôts de mucopolysaccharides, • - la technique à l'hématéine plus éosine afin de mettre en évidence les dépôts de calcium.
L'intensité des altérations observées et le degré d'athéromatose sont indiquées par l'un des signes:
• - Pas d'athéromatose 0 • = Très léger degré d'athéromatose 0,5 • + Léger degré d'athéromatose 1 • ++ Moyen degré d'athéromatose 2 • +++Important degré d'athéromatose 3
Les zones athéromateuses sont dénombrées sur une longueur identique pour chacune des aortes examinées. […]

[3] = system: Rats: Wistar femelles; test: Atherogenic diet (modified Aubert technique): macroscopic examination of the aorta; conditions: for Intensité des lésions Cotation: scale Stade 0 to Stade 5
Text: as §1, §2
En fin d'étude, tous les animaux sont sacrifiés par ponction subtotale du sang à l'aorte abdominale après anesthésie au pentobarbital sodique. On prélève le coeur, le foie et l'aorte sur laquelle on effectue la cotation du pouvoir athérogène. Pour ce faire, les aortes sont coupées longitudinalement puis étalées pour permettre une vue d'ensemble du revêtement endothélial depuis les valvules aortiques jusqu'à la bifurcation du tronc coeliaque (segment inférieur de l'aorte thoracique).
L'aorte est séparée en 2 zones: • - Zone 1: Valvules aortiques - premières artères intercostales • - Zone 2: premières artères intercostales - bifurcation du tronc coeliaque.
L'intensité des dépôts athéromateux est évaluée selon les critères suivants: • - Stade 0: Absence de dépôts • - Stade 1: Dépôts discrets ([…]) peu nombreux • - Stade 2: Dépôts discrets nombreux • - Stade 3: Dépôts importants (> 1 mm) nombreux • - Stade 4: Dépôts très importants ou très nombreux mais laissant quelques zones non infiltrées. • - Stade 5: Dépôts sur tout l'endothélium.
Deux paramètres sont à prendre en considération: • 1. Le nombre d'animaux présentant des lésions macroscopiques, dont le pourcentage d'animaux atteints. • 2. L'intensité des lésions observées cotées selon les indications fournies précédemment.

[4] = 100 mg/kg, 4 weeks, score relative to Clofibrate (Base 1)
[5] = compared with Clofibrate at the same dose

| SMILES | Cholesterol LDL Cholesterol HDL Score/Clofibrate ([1]; 100 mg/kg) | Cholesterol T/ Cholesterol HDL Score/Clofibrate ([1]; 100 mg/kg) | Risque athérogène Score Total ([1]; 100 mg/kg) | Cholesterol E Score [1, 4] | Cholesterol LDL Score [1, 4] | Cholesterol T Score [1, 4] | Lipides totaux Score [1, 4] | Triglycerides Score [1, 4] | Cholesterol LDL Cholesterol HDL Score ([1]; 100 mg/kg) | Cholesterol T/ Cholesterol HDL Score ([1]; 100 mg/kg) | score général Biochimie ([1]; 100 mg/kg) | Histologie score [2] | Intensité des lésions Cotation ([3]; 100 mg/kg) | other results |
| --- | --- | --- | --- | --- | --- | --- | --- | --- | --- | --- | --- | --- | --- | --- |
| CCOC(=O)C(C)(C)Oc1ccc(Cl)cc1 [Clofibrate] | 1.00 | 1.00 | 2 | 1.00 | 1.00 | 1.00 | 1.00 | 1.00 | 5.35 | 6.69 | 6 | 3.00 | 2.00 | Cholesterol HDL Score [1, 4]: 1.00 |
| COc1ccc(C(=O)CC2(O)C(=O)c3ccccc3C2=O)cc1OC [Produit de l'invention, 2-[(3,4-dimethoxybenzoyl)methyl] 2-hydroxy 1,3-dioxo indane] | 0.46 | 0.44 | 0.90 | 1.05 | 1.04 | 1.14 | 1.37 | 1.07 | 15.63 | 17.81 | 5.6 and 5.67 | 1.3 and 1.32 | 2.08 | activité sur les paramètres biochimiques [1, 5]: aussi actif que le Clofibrate; activité anti-lipémiante ([1]; dès la dose de 100 mg/kg): nette activité anti-lipémiante; Animaux Atteints Score Clofibrate ([3]; 100 mg/kg): 1.69; Intensité des lésions Score Clofibrate ([3]; 100 mg/kg): 0.88; Observations Macroscopiques Score Total ([3]; 100 mg/kg): 2.57; Animaux Atteints % ([3]; 100 mg/kg, animals with macroscopic lesions): 69.23%; activité sur l'évalution des lésions macroscopiques [3, 5]: plus actif |
